≈ marks a conversion by molar mass, not a printed value.
Assays:
HSV-1, Strain no. SM44 = assay: HSV-1 skin lesion model in guinea pigs; assay type: in vivo, guinea pig; settings: for Extent of Skin Pathological Changes EPC (Mean ± SD) / Inhibition rate IR: Acyclovir cream 3 g %
Description: Material. […] Virus is Herpes simplex type 1 (HSV-1, Strain no. SM44), imported from The American Type Culture Collection. The virus strain was proliferated and preserved by the Department of Virological Diagnosis, Institution of Virology, Chinese Preventative Medical Academy. “Bunched needle” refers to seven individual needles (size No. 7) bunched together as one bunch and seven bunches were put together as one “Bunched needle”. Other related apparatuses: All other apparatuses and reagents were provided by the Department of Virological Diagnosis, Chinese Preventative Medical Academy.
Animals: Guinea pigs, half male and half female, 200-250 grams (animal license no. YDHZ SCXK11-00-0006), supplied by the Animal Center of the Chinese Medical Academy and Peking Union Medical College.
HSV-1 cutaneous lesion in guinea pig. The animals were grouped in 5. Animals within each group will be the same gender and have similar body weight. The hair was removed from dorsal side of the animal and the skin was abraded with needles as described above. The entire abraded area was infected with 150 μl of HSV-1 stock suspension.
Typical herpes lesions appeared on the infected area on the 4th day of infection. The extent of pathological changes was scored as described below. […] The amount of cream given to each animal was 1.5 gram per dose twice daily for a six-day duration.
Daily records of the pathological changes infected area were made according to the following criteria:
When the skin lesions developed up to ¼ of the total area, the pathological changes were scored as 1.0-1.6;
When the skin lesions developed on 2/4 of the total area, the pathological changes were scored as 1.7-2.4;
When the skin developed on ¾ of the total area, the pathological changes were scored as 2.5-3.2;
When the skin lesions developed 4/4 of the total areas, the pathological changes were scored as 3.3-4.0;
When the skin herpes scars developed up to ¼ of the total areas, the pathological changes were scored as 0.9-1.0;
When the skin herpes scars were up to 2/4 of the total areas, the pathological changes were scored as 0.7-0.8;
When the skin herpes scars were up to ¾ of the total areas, the pathological changes were scored as 0.5-0.6;
When the skin herpes scars were up to 4/4 of the total areas, the pathological changes were scored as 0.2-0.4;
When the skin herpes scars were all detached and lesions healed, the pathological changes were scored as 0.

HSV-2, Strain no. 333 [1] = assay: Recovery of HSV-2 from vaginal samples of infected mice (CPE on Vero cells); assay type: in vivo, BALB/c mice; settings: Acyclovir cream 3 g %
HSV-2, Strain no. 333 [2] = assay: HSV-2 mouse vaginal infection model, survival; assay type: in vivo, BALB/c mice; settings: 3% Acyclovir cream
Protocol: (Batch no. 200205), provided by the Department of Biology, the Chinese University of Hong Kong, Hong Kong. […] Virus is Herpes simplex type II (HSV-2, Strain no. 333, batch no. 200104010), provided by the Department of Virological Diagnosis, Institution of Virology, Chinese Preventative Medical Academy. Needles for vaginal tract infection (size no. of 12) were prepared by the Department of Virological Diagnosis, Chinese Preventative Medical Academy. African green monkey kidney cells (Vero cells) were provided by the Department of Virological Diagnosis, Chinese Preventative Medical Academy. Physiological saline and cell culture medium was provided by the Department of Virological Diagnosis, Chinese Preventative Medical Academy. Inverted microscope was provided by the Department of Virological Diagnosis, Chinese Preventative Medical Academy. Carbon dioxide incubator was provided by the Department of Virological Diagnosis, Chinese Preventative Medical Academy. And other related apparatuses: provided by the Department of Virological Diagnosis, Chinese Preventative Medical Academy.
Animals: BALB/c mice, female, body weight range of 18-20 grams. Animal license no. YDHZ 01-3003, supplied by the Animal Center of the Chinese Medical Academy and Peking Union Medical College.
1. Target of the experiments: The mice could develop viral vaginitis following infection with HSV-2. […] Statistical analysis, t values and p values, was calculated in comparison with the virus control group. Efficacy of the testing samples will be evaluated on the basis of statistical calculation.
2. […] The number of animals per group was 10. Ten additional animals that were not infected with HSV-2 and received no treatment served as the uninfected control group.
Treatment began on day 3 post-infection. This was achieved by applying the cream to the vaginal tract with cotton swabs. The creams were given at a dose of 2 mg per mouse twice daily for a six-day duration. Mortality and the number of days for lethality to occur were recorded. The experiment was repeated twice. The protection rates and life span extension rates were calculated. The efficacy of testing agents were judged in comparison with the […] on the basis of the calculated t values and p values.
The survival rate and number of days for lethality to occur were recorded. The latter was expressed as the average life span in days.

HSV-1 [3] = settings: Xu et al., Heterocycles 1994; cited from earlier work
HSV-induced cell fusion = settings: Srinivas et al.; cited from earlier work
wild-type HSV-1 = assay: Penetration assay, wild-type HSV-1 into Vero cells; assay type: cell-based, herpes simplex virus type 1
Protocol: (§1) Penetration Assay. The penetration assay was conducted using the method as described in Example with modifications. Confluent Vero cell monolayers in 25 ml tissue culture flasks were chilled to 4° C. for 45 mm. The monolayers were infected with 300 pfu of HSV-1 in 2.5 ml of cold MEM Earle's medium. Attachment was synchronized for 1 h at 4° C. The flasks were washed twice with 4 ml of cold PBS to remove any unbound virus. The monolayers were covered with 5 ml of maintenance medium and shifted to 37° C. […] The flasks were incubated at 37° C. for 90 min, after which the monolayers were washed twice with 4 ml of PBS and covered with 10 ml of 0.8% methylcellulose in maintenance medium. Plaque formation was allowed at 37° C. for 72 h. For the citrate buffer treated group, 3 ml of buffer was added to the monolayers for 1 min. The cells were washed twice with PBS, after which medium was added to allow plaque formation. For the no treatment control group, following medium removal, the monolayers were washed twice with PBS and medium added to allow plaque formation.
Citrate buffer at pH 3 represents the penetration kinetics of HSV into Vero cells. The low pH removes adherent virus particles from the cell surface (i.e., those that have not yet penetrated). At time 20 min, all the wild type virus particles have penetrated and can not be removed by the low pH buffer (Table 6). […] This reduction is less obvious than the heparin treatment. At time 0 min, only 19% of the virus could penetrate and form plaque as compared to 49% in the heparin treatment.

[4] = system: HSV-1 (acyclovir-sensitive strain, BW-S strain); assay: Plaque reduction assay (Example 6), HSV-1 BW-S strain on Vero cells; assay type: cell-based, herpes simplex virus type 1
[5] = system: gC-deficient HSV-1, Delta gC2-3; assay: Binding competition experiment, Delta gC2-3; assay type: cell-based, herpes simplex virus type 1; settings: mixed with virus and used immediately
Protocol: (§2) The anti-herpes effect of sodium heparin was further investigated by a binding competition experiment. In this experiment, 0.5 ml samples of HSV-1 (about 100 pfu) were mixed with 0.5 ml of sodium heparin at different concentrations. The mixtures were immediately used to infect Vero cells at 37° C. for 1 h. Following the incubation, the number of plaques were determined in the plaque assay. […] At 1 mg/ml heparin, the % plaque inhibition was 92%. Similar results were obtained when the gC-deficient HSV-1, Delta gC2-3, was used. In which case, the % plaque inhibition for 62.5 μg/ml and 1 mg/ml heparin were 77% and 86%, respectively.

HSV-1 strain #15577 [6] = assay: Binding competition experiment, strain #15577; assay type: cell-based, herpes simplex virus type 1; settings: mixed with virus and used immediately
Protocol: as §2

HSV-1 strain Delta gC2-3 = assay: Binding experiment: residual infectious virus after incubation with sample, Delta gC2-3; assay type: cell-based, herpes simplex virus type 1; settings: 2 mg heparin with 10^5 pfu, 36° C., 1 h; water control = 100%
Protocol: (§3) The mixture was serially diluted in medium and the number of residual infectious virus was determined by the plaque assay. The number of plaque developed in the water treatment control was taken as 100%.

HSV-1 strain #15577 [7] = assay: Binding experiment: residual infectious virus after incubation with sample, strain #15577; assay type: cell-based, herpes simplex virus type 1; settings: 2 mg heparin with 10^5 pfu, 36° C., 1 h; water control = 100%
Protocol: as §3

HSV-1 [8] = assay: Plaque reduction assay (Example 3), HSV-1 on Vero cells; assay type: cell-based, herpes simplex virus type 1
[9] = system: glycoprotein C-deficient mutant HSV-1; assay: Penetration assay, gC-deficient HSV-1 mutant into Vero cells; assay type: cell-based, herpes simplex virus type 1
Protocol: as §1
However, by 60 min, all the virus particles appeared to have penetrated.

[10] = system: HSV-1 strain Delta gC2-3 (glycoprotein C deficient); assay: Plaque reduction assay, glycoprotein C deficient HSV-1; assay type: cell-based, herpes simplex virus type 1; settings: strain Delta gC2-3, plaque reduction assay
[11] = Tabba et al.; cited from earlier work
[12] = Heparin 1000 μg/ml added at Time 0 min
[13] = Heparin 1000 μg/ml added at Time 10 min
[14] = Heparin 1000 μg/ml added at Time 20 min

For `Nc1nc2c(ncn2COCCO)c(=O)[nH]1` [Acyclovir], the “Extent of Skin Pathological Changes EPC (Mean ± SD)” value (HSV-1, Strain no. SM44; Day 4 (start of treatment)) was 3.87 ± 0.12 cm^2, the “Inhibition rate IR” value (HSV-1, Strain no. SM44; Day 4 (start of treatment)) was 0% and the “Extent of Skin Pathological Changes EPC (Mean ± SD)” value (HSV-1, Strain no. SM44; Day 5) was 3.54 ± 0.22 cm^2. The “Inhibition rate IR” value (HSV-1, Strain no. SM44; Day 5) was 11%, the “Extent of Skin Pathological Changes EPC (Mean ± SD)” value (HSV-1, Strain no. SM44; Day 6) was 2.77 ± 0.40 cm^2 and the “Inhibition rate IR” value (HSV-1, Strain no. SM44; Day 6) was 30%. For the same compound, the “Extent of Skin Pathological Changes EPC (Mean ± SD)” value (HSV-1, Strain no. SM44; Day 7) was 2.02 ± 0.30 cm^2, the “Inhibition rate IR” value (HSV-1, Strain no. SM44; Day 7) was 44% and the “Extent of Skin Pathological Changes EPC (Mean ± SD)” value (HSV-1, Strain no. SM44; Day 8) was 1.21 ± 0.38 cm^2. For the same compound, the “Inhibition rate IR” value (HSV-1, Strain no. SM44; Day 8) was 63%, the “Extent of Skin Pathological Changes EPC (Mean ± SD)” value (HSV-1, Strain no. SM44; Day 9) was 0.82 ± 0.16 cm^2 and the “Inhibition rate IR” value (HSV-1, Strain no. SM44; Day 9) was 71%. For the same compound, the “Extent of Skin Pathological Changes EPC (Mean ± SD)” value (HSV-1, Strain no. SM44; Day 10) was 0.38 ± 0.18 cm^2, the “Inhibition rate IR” value (HSV-1, Strain no. SM44; Day 10) was 84% and the “Extent of Skin Pathological Changes EPC (Mean ± SD)” value (HSV-1, Strain no. SM44; Day 11) was 0.09 ± 0.19 cm^2. The “Inhibition rate IR” value (HSV-1, Strain no. SM44; Day 11) was 96%, the “signs of paralysis in lower limbs” value (HSV-1, Strain no. SM44; cream-treated groups, seen in some animals of the virus control group) was “not observed” and the “Therapeutic Rate” value (HSV-2, Strain no. 333 [1]) was 71%. For the same compound, the “No. of samples containing HSV-2 After Treatment” value (HSV-2, Strain no. 333 [1]; 30 vaginal samples) was 8, the “No. of samples containing HSV-2 Before Treatment” value (HSV-2, Strain no. 333 [1]; 30 vaginal samples) was 30 and the “Life Span Extension Rate” value (HSV-2, Strain no. 333 [2]) was 81.2%. For the same compound, the “Protection Rate” value (HSV-2, Strain no. 333 [2]) was 78.6%, the Survival (HSV-2, Strain no. 333 [2]) was 80% and the No. of death (HSV-2, Strain no. 333 [2]; 30 animals) was 6. The No. of survival (HSV-2, Strain no. 333 [2]; 30 animals) was 24 and the “Life Span Extension Rate” value (HSV-2, Strain no. 333 [2]; listed as acyclovir) was 81.3%.

In the case of `O=Cc1cc(O)c(O)c(O)c1` [gallic aldehyde], the “IC50 against HSV-1” value (HSV-1 [3]) is given as 12.5 µg/mL (≈ 81.1 µM).

For “apolipoprotein A-I: high density serum apolipoprotein A-I”, the “concentration inhibiting HSV-induced cell fusion” value (HSV-induced cell fusion) is given as 1 µM.

In the case of geponin, the “IC50 against HSV-1” value (HSV-1 [3]) is listed as 25 µg/mL.

For heparin, the “% Plaques” value (wild-type HSV-1; [12]) was 49%, the “% Plaques” value (wild-type HSV-1; Heparin 1000 μg/ml added at Time 2 min) was 57% and the “% Plaques” value (wild-type HSV-1; Heparin 1000 μg/ml added at Time 4 min) was 88%. For the same compound, the “% Plaques” value (wild-type HSV-1; Heparin 1000 μg/ml added at Time 6 min) was 86%, the “% Plaques” value (wild-type HSV-1; [13]) was 100% and the “% Plaques” value (wild-type HSV-1; Heparin 1000 μg/ml added at Time 15 min) was 100%. The “% Plaques” value (wild-type HSV-1; [14]) was 100%, the “anti-HSV-1 IC50” value [4] was 300 µg/mL and the “% plaque inhibition” value ([5]; 62.5 μg/ml) was 77%. For the same compound, the “% plaque inhibition” value ([5]; 1 mg/ml) was 86%, the “% plaque inhibition” value (HSV-1 strain #15577 [6]; 62.5 μg/ml) was 88% and the “% plaque inhibition” value (HSV-1 strain #15577 [6]; 1 mg/ml) was 92%. The “original virus still infectious” value (HSV-1 strain Delta gC2-3) was 42%, the “original virus still infectious” value (HSV-1 strain #15577 [7]) was 30% and the IC50 (HSV-1 [8]; HSV-1 strain #15577, plaque reduction assay) was 750 µg/mL. The IC50 values (HSV-1 [8]; plaque reduction assay, added 1 h after virus, strains 15577 and Delta gC2-3) was 750 to 1000 µg/mL, the “% Plaques” value [9, 12] was 62% and the “% Plaques” value [9, 13] was 90%. The “% Plaques” value [9, 14] was 100%, the “% Plaques” value ([9]; Heparin 1000 μg/ml added at Time 30 min) was 100% and the “% Plaques” value ([9]; Heparin 1000 μg/ml added at Time 40 min) was 100%. The “% Plaques” value ([9]; Heparin 1000 μg/ml added at Time 50 min) was 84%, the “% Plaques” value ([9]; Heparin 1000 μg/ml added at Time 60 min) was 100% and the “effects on the penetration of the gC-deficient mutant into Vero cells” value ([9]; heparin 1000 μg/ml, in words) was “no apparent effects”. For the same compound, the IC50 [10] was > 1000 µg/mL.

In the case of prunellin, the “pH in aqueous solution” value [11] is given as 7.4.

Source: patent US20030215529A1, “Composition and pharmaceutical preparation containing same for the treatment of herpes and related viral infections” (Dalhousie University, priority 1998, published 2003)
